Measured values: patent publication US6531603B1, “Polymorphic forms of 6-[4-(1-cyclohexyl-1H-tetrazol-5-yl)butoxy]-3,4-dihydro-2(1H)-quinolinone” (priority 2001, dated 2003)

How the values were obtained:
[1] = aqueous solubility of cilostazol polymorphic forms; assay type: physicochemical
bioavailability = assay type: in vivo; conditions: Form A as prepared by the procedures of the '479 patent
[2] = stability of the crystalline form; assay type: physicochemical
[3] = solid state phase transformation of disturbed sample on heating by DSC; assay type: physicochemical; conditions: sample disturbed with scratching / stressed, DSC heating from 30° C. to approximately 200° C. at 10° C. per minute, followed by melt at about 160° C. (Form A)
Source text: Characterization of Form A of cilostazol, Form B of cilostazol, and Form C of cilostazol was further completed using DSC thermograms, shown in FIGS. 3, 4, and 5, respectively, with DSC thermograms for combinations of Form A and Form B; Form B and Form C; and Forms A, B, and C are shown in FIGS. 6, 7, and 8 respectively. DSC data were generated using a Mettler-Toledo DSC 821^e (Columbus, Ohio) with a Julabo FT900 intercooler chiller (Julabo Company; Allentown, Pa.). In general, samples were analyzed in a vented, sealed aluminum pan. Because the endothermic peak may vary depending upon the rate of heating and the calibration and precision of the instrument, with the amount of peak variation dependent upon the heating rate used, all thermograms included herein were run under the same, consistent conditions: heating at 10° C. per minute under a nitrogen purge at 40 mL/minute. The resultant sample of Example 1A was disturbed with scratching, which caused the cilostazol sample to undergo a solid state phase transformation at approximately 119° C. followed by an endotherm of melt at approximately 160° C. (Form A) during heating by DSC from 30° C. to approximately 200° C. at 10° C. per minute. When the sample is stressed and reheated (as detailed in Example 2A), the sample undergoes a solid state phase transformation at approximately 147° C. followed by an endotherm of melt at about 160° C. […]

## O=C1CCc2cc(OCCCCc3nnnn3C3CCCCC3)ccc2N1 [Form A, 6-[4-(1-cyclohexyl-1H-tetrazol-5-yl)butoxy]-3,4-dihydro-2(1H)-quinolinone]
[1]; Form A as prepared by the procedures of the '479 patent
  aqueous solubility: low
bioavailability
  bioavailability: low

## O=C1CCc2cc(OCCCCc3nnnn3C3CCCCC3)ccc2N1 [Form B, 6-[4-(1-cyclohexyl-1H-tetrazol-5-yl)butoxy]-3,4-dihydro-2(1H)-quinolinone]
[1]; inferred from lower melting point in DSC thermogram (FIG. 8), solubility itself not measured
  solubility relative to Form A: more soluble than Form A
[2]
  stability of the polymorphic form: stable
[3]; listed as Example 1A
  solid state phase transformation temperature (to Form A): approximately 119 °C

## O=C1CCc2cc(OCCCCc3nnnn3C3CCCCC3)ccc2N1 [Form C, 6-[4-(1-cyclohexyl-1H-tetrazol-5-yl)butoxy]-3,4-dihydro-2(1H)-quinolinone]
[3]; listed as Example 2A
  solid state phase transformation temperature (to Form A): approximately 147 °C
